Columns and labels:
Assay type in all cases: cell-based, human
MCRIi001-A-2 organoids = experiment: Osteogenic differentiation conditions in a second iPSC line; conditions: osteogenic conditions with a CHIR99021 pulse v osteogenic medium alone
Procedure: Hypertrophic chondrocytes can transdifferentiate into osteoblasts and osteocytes in vivo (Yang et al., 2014; Zhou et al., 2014). To recapitulate this later stage of endochondral bone formation in vitro, hypertrophic chondrocyte pellets in orbital culture were rinsed in PBS then cultured in DMEM, high glucose, GlutaMAX Supplement, pyruvate (ThermoFisher), 20% FBS (ThermoFisher), 10 mM β-glycerophosphate, 50 μg/ml ascorbic acid 2-phosphate, 50 μg/ml sodium ascorbate, 100 nM dexamethasone (osteogenic differentiation media) for up to three weeks. […] Media was replaced every 2-3 days.
Cultured and in vivo grafted pellet organoids were fixed overnight at 4° C. in Confix (Australian Biostain) neutral-buffered formalin, then […] washed in 70% ethanol, and paraffin-embedded. After fixing, some in vivo grafted pellets were washed in water for 10 minutes then decalcified in 14% EDTA, pH 7.4 at 4° C. for 5 days before embedding. Serial 5 μm sections cut from the pellet centers were mounted on Superfrost Plus slides (Menzel-Gläser) and heated at 55° C. overnight. Sections were treated with xylene to remove the paraffin wax and an ethanol series comprising 100%, 90%, 70%, 50% ethanol then water to rehydrate the sections. Sections were stained with toluidine blue to detect a cartilage proteoglycan matrix or safranin O/fast green for cartilage and bone following standard protocols. […]

[1] = system: MCRIi018-B hypertrophic organoids; experiment: Hypertrophic chondrocyte to osteoblast transdifferentiation in vitro
Procedure: Hypertrophic chondrocytes can transdifferentiate into osteoblasts and osteocytes in vivo (Yang et al., 2014; Zhou et al., 2014). To recapitulate this later stage of endochondral bone formation in vitro, hypertrophic chondrocyte pellets in orbital culture were rinsed in PBS then cultured in DMEM, high glucose, GlutaMAX Supplement, pyruvate (ThermoFisher), 20% FBS (ThermoFisher), 10 mM β-glycerophosphate, 50 μg/ml ascorbic acid 2-phosphate, 50 μg/ml sodium ascorbate, 100 nM dexamethasone (osteogenic differentiation media) for up to three weeks. […] Media was replaced every 2-3 days. […]

[2] = system: iPSC-derived sclerotome pellets (MCRIi018-B); experiment: Sclerotome to chondrocyte differentiation in pellet culture (FGF2 v BMP4); conditions: for collagen II extracellular matrix (immunostaining) / collagen X extracellular staining: day 48; for collagen X extracellular staining: static pellets
Procedure: Sclerotome to chondrocyte differentiation was in APEL2 medium containing 5% Protein Free Hybridoma Medium (PFHM II; Thermo Fisher) and 20 ng/ml FGF2. In some experiments BMP4 (R & D Systems) was included at 20 ng/ml. Pellets were routinely transferred to 6 cm non-adherent dishes (Greiner) at the end of either day 6 or day 20; 15-20 pellets per dish in 5 ml of medium with orbital rotation at 60 rpm. The medium was changed every 2-3 days. From day 20 (after 2 weeks of FGF2 treatment), differentiation/maturation continued in APEL2/5% PFHM with medium replaced every 2-3 days for the duration of the chondrogenic differentiation experiments as indicated. In some experiments pellets were treated with FGF2 for 4 weeks post-sclerotome.
(§1) Cultured and in vivo grafted pellet organoids were fixed overnight at 4° C. in Confix (Australian Biostain) neutral-buffered formalin, then […] washed in 70% ethanol, and paraffin-embedded. After fixing, some in vivo grafted pellets were washed in water for 10 minutes then decalcified in 14% EDTA, pH 7.4 at 4° C. for 5 days before embedding. Serial 5 μm sections cut from the pellet centers were mounted on Superfrost Plus slides (Menzel-Gläser) and heated at 55° C. overnight. Sections were treated with xylene to remove the paraffin wax and an ethanol series comprising 100%, 90%, 70%, 50% ethanol then water to rehydrate the sections. Sections were stained with toluidine blue to detect a cartilage proteoglycan matrix or safranin O/fast green for cartilage and bone following standard protocols. Osteogenic pellet sections were also stained with von Kossa to detect mineralization. Images were captured using a Leica DM 2000 LED microscope with Leica Application Suite (LAS) software version 4.9.0 or Zeiss Axio Imager Z2 with Zen 3.1 Blue Edition software.
(§2) Formalin fixed and paraffin-embedded sections were immunostained for collagen II (MAB8887; Sigma-Aldrich; 1:150 dilution), collagen I (LF68; Kerafast ENH018-FP; 1:100), collagen X (Cameron et al., 2015) (1:100), PRG4 (clone 9G3; Merck) (1:100) and Ku80 (Cell Signaling) (1:300). For collagen II staining, antigen retrieval used 2 mg/ml porcine pepsin (Sigma) freshly prepared in 1 M Tris/HCl, pH 2.0 for 30 minutes at 37° C., followed by digestion for 30 minutes at 37° C. with 0.2% hyaluronidase (Sigma-Aldrich) in PBS. Collagen X antigen retrieval involved heating to 60° C. in 10 mM Tris/1 mM EDTA/0.05% Tween-20, pH 9.0 (Tris/EDTA) for 30 min, cooling to room temperature for 30 minutes, followed by hyaluronidase digestion and collagen I and Ku80 staining followed antigen retrieval at 60° C. in Tris/EDTA as above. Sections to be stained with Ku80 were then permeabilized with 0.05% Triton X-100. Sections were blocked with 3% BSA in PBS for 1 hour at room temperature, then incubated with primary antibodies in 1% BSA in PBS for 16 hours at 4° C. Appropriate species specific Alexa Fluor 488 and 594 secondary antibodies (ThermoFisher) were diluted 1:200 in 1% BSA in PBS with 2.5 μg/ml DAPI, and sections incubated for 1 hour at room temperature. Slides were washed with PBS and coverslips mounted using Shandon Immumount (ThermoFisher). Images were captured as described above. For collagen X intracellular colocalization studies sections were treated with 0.2% hyaluronidase at 37° C. for 30 minutes then permeabilized with 0.05% Triton X-100. The collagen X antibody was used at 1:100, 58K (PA1-9000; ThermoFisher) at 1:50, GRP94 (PA5-18534; ThermoFisher) 1:200 and LAMP2 (ab25631; Abcam) 1:50. Images were captured on a Zeiss LSM900 Airyscan 2 confocal microscope with Zen 3.1 Blue Edition software.
RNA was extracted from monolayer cultures using TRIzol […] following the manufacturer's instructions. Typically 100-200 ng total RNA was used for cDNA synthesis in a total volume of 20 μl using the QuantiTect® Reverse Transcription kit (Qiagen) according to the manufacturer's instructions. […]

[3] = system: iPSC-derived chondroprogenitors (MCRIi019-A); experiment: TGFβ3 induction of an articular chondrocyte phenotype; conditions: day 48
Procedure: In some experiments, differentiated chondrocytes were treated with 10 ng/ml TGFβ3 (R&D Systems) for up to 34 days to generate articular cartilage. From day 6, differentiation/maturation continued in APEL2/5% PFHM (with FGF2) for 7 days. From day 13, 10 ng/ml TGFβ3 was added (i.e. FGF2 and TGFβ3) with medium replaced every 2-3 days. At day 20, the pellets were transferred to rotary culture and cultured with 10 ng/ml TGFβ3 (R&D Systems) (and without FGF2) for a further 4 weeks.
as §1, §2
For RNAseq, organoids (2-3 pooled) were snap frozen in liquid nitrogen, pulverized using a liquid nitrogen-cooled tissue grinder and RNA extracted with TRIzol, followed by purification using Direct-zol RNA Microprep kit spin columns (Zymo Research) according to the manufacturer's instructions. RNA samples were quality controlled and sequenced at the Translational Genomics Unit, Murdoch Children's Research Institute. Libraries were constructed using Illumina Stranded mRNA Prep kits and sequenced using a NextSeq 500 to obtain ˜20×10^6 75 bp paired-end reads per sample or a NovaSeq 6000 for 150 bp paired-end reads. […]

[4] = osteogenic conditions with CHIR, RNAseq
[5] = osteogenic conditions with a CHIR pulse, RNAseq
[6] = 20 ng/ml for 14 days post-sclerotome, qRT-PCR
[7] = 20 ng/ml for 14 days post-sclerotome, static culture, day 34

Cc1cnc(-c2cnc(NCCNc3ccc(C#N)cn3)nc2-c2ccc(Cl)cc2Cl)[nH]1 [CHIR99021, 6-[[2-[[4-(2,4-Dichlorophenyl)-5-(5-methyl-1H-imidazol-2-yl)-2-pyrimidinyl]amino]ethyl]amino]-3-pyridinecarbonitrile]
aggrecan degradation (toluidine blue) (MCRIi001-A-2 organoids): more extensive
COL1A1 mRNA expression v osteogenic medium alone ([1]; RNAseq): much higher
bone markers COL3A1, COL5A1 and OMD mRNA v osteogenic medium alone ([1]; RNAseq): more highly expressed
other cartilage markers (SOX9, COMP, IHH, MATN3, CEBPB, COL11A1, COL11A2, COL9A1, COL9A2, COL9A3) mRNA v osteogenic medium alone ([1]; RNAseq): downregulated more
COL1A1 upregulation v hypertrophic chondrocytes [1, 4]: 324 fold
COL1A2 upregulation v hypertrophic chondrocytes [1, 4]: 210 fold
DMP1 upregulation v hypertrophic chondrocytes [1, 4]: 935 fold
IBSP upregulation v hypertrophic chondrocytes [1, 4]: 7 fold
IFITM5 upregulation v hypertrophic chondrocytes [1, 4]: 105 fold
CCDC3 upregulation v hypertrophic chondrocytes [1, 5]: 121 fold
FAP upregulation v hypertrophic chondrocytes [1, 5]: 64 fold
POSTN upregulation v hypertrophic chondrocytes [1, 5]: 54 fold
SFRP4 upregulation v hypertrophic chondrocytes [1, 5]: 4 fold
TNC upregulation v hypertrophic chondrocytes [1, 5]: 72 fold
toluidine blue staining ([1]; osteogenic medium with 7-day pulse then 2 weeks osteogenic medium alone): marked reduction in toluidine blue staining
μCT calcium phosphate mineral ([1]; three weeks): little μCT attenuation
von Kossa staining (matrix mineralization) ([1]; three weeks, compared between the two osteogenic conditions): positive von Kossa staining

FGF2: FGF pathway activator growth factor (PeproTech) used at 20 ng/ml post-sclerotome
COL2A1 and ACAN gene expression [2, 6]: consistently higher than in BMP4 cultures
toluidine blue staining of pellets [2, 7]: strong toluidine blue staining throughout
collagen II extracellular matrix (immunostaining) [2]: extensive and uniform collagen II extracellular matrix
collagen X extracellular staining [2]: strong
toluidine blue staining of pellets ([2]; rotary culture from day 6): stained throughout with toluidine blue

TGFβ3: TGF-beta agonist growth factor (R&D Systems) used at 10 ng/ml
PRG4 immunostaining ([3]; 10 ng/ml from day 13): High uniform PRG4 immunostaining
chondrocyte morphology ([3]; 10 ng/ml from day 13): smaller chondrocytes
collagen II expression (immunostaining) ([3]; 10 ng/ml from day 13): also expressing collagen II
collagen X (immunostaining) ([3]; 10 ng/ml from day 13): no extracellular collagen X
ACAN and HAPLN mRNA ([3]; RNAseq): down-regulation
COL10A1, IBSP, SPP1 and MATN3 mRNA ([3]; RNAseq): among the most downregulated
COMP mRNA v untreated chondronoids ([3]; RNAseq): not differentially expressed
ERG transcription factor mRNA ([3]; RNAseq): highly expressed and upregulated
MEOX1 and MEOX2 mRNA ([3]; RNAseq): highly upregulated
PRG4, ASPN, CILP and CILP2 mRNA v untreated chondronoids ([3]; RNAseq): strongly upregulated
downregulation of COL2A1, COL9A1, COL9A2, COL9A3, COL11A1 mRNA v untreated chondronoids ([3]; RNAseq): ≤ 2 fold
elastic fiber components ELN, LTBP2, TGFBI and MFAP5 mRNA ([3]; RNAseq): among the 20 most highly upregulated genes
hypertrophy transcription factors MEF2C, RUNX2, SP7 and DLX5 mRNA ([3]; RNAseq): Among the most strongly downregulated

B1: BMP4: growth factor (R & D Systems) included at 20 ng/ml in some experiments (protein, UniProt P12644 293-408, looked up)
Bone morphogenetic protein 4: SPKHHSQRARKKNKNCRRHSLYVDFSDVGWNDWIVAPPGYQAFYCHGDCPFPLADHLNSTNHAIVQTLVNSVNSSIPKACCVPTELSAISMLYLDEYDKVVLKNYQEMVVEGCGCR
COL10A1 gene expression [2, 6]: expressed earlier
toluidine blue staining of pellets [2, 7]: only isolated areas were toluidine blue positive
expression of key cartilage genes ([2]; 20 ng/ml for two weeks post-sclerotome, first experiments, data not shown): key cartilage genes were not highly expressed
collagen II extracellular matrix (immunostaining) [2]: only small foci that were positive for collagen II
collagen X extracellular staining [2]: only seen in small, localized regions
maintenance of pellets in rotary culture ([2]; transfer to rotary culture at end of day 6): fragile and could not be maintained in rotary culture
